Tests used:
[1] = system: DLBCL in the orbit (DLBCL pfeiffer cell lines); assay: In vivo treatment of DLBCL in the orbit (pfeiffer transplanted tumor model)
Method: DLBCL pfeiffercell lines were purchased from ATCC, USA.
(§1) BALB/c mice: 60 mice, half male and half female, 3-4 weeks old, weighing 15-22 g, purchased from the Experimental Animal Management Center of West China Medical Center.
The cells were thawed in a 37° C. water bath according to the method provided by ATCC, and cultured in RPMI-1640 medium. The medium was exchanged or the cells were passaged every 1-2 days. When the cells were in a stable proliferative state, the cells with good vitality were selected from the 2nd to 3rd generations and counted under a microscope using a cell counting board. The concentration of inoculate cells was adjusted to 1.5×10^8/ml, and sealed for later use.
The tumor cell suspension inoculation method was used. Before cell inoculation, all mice were subjected to cesium-137 radiation to further immunosuppress and improve the success rate of inoculation. Tumor cells were inoculated within 6 hours after irradiation. After disinfecting with 75% alcohol around the eyes, 0.1 ml of tumor cell suspension was drawn using an 1 ml empty needle, and injected into the orbit through the skin of the upper temporal eyelid. […] After inoculation, high-pressure sterilized water containing 100000 U/L of gentamicin was given for one week to prevent infection. 5% glucose with egg yolk was orally administered daily to enhance nutrition. The growth state of mice and local tumor growth was observed every day.
The drug preparation was formulated prior to daily administration, and given for 14 days.
(§2) During the administration period, the growth of the mouse tumor, eating, activity, and other adverse reactions were observed and recorded every other day. After 14 days of administration, the mice were euthanized using cervical dislocation method, and their body weight and tumor size were measured and recorded according to the pre-administration numbers. The tumor inhibition rate (%) was calculated based on tumor weight.

[2] = system: DLBCL in the brain (DLBCL Ly8 cell lines); assay: In vivo treatment of DLBCL in the brain (Ly8 transplanted tumor model); conditions: i.p. 3 mg/kg once every two days
From the text: DLBCL Ly8 cell lines were purchased from the Cancer Hospital of Fudan University, which were suspended, cultured, and passaged in 10% calf serum DMEM complete medium, with stable growth. Cells in the logarithmic growth phase were collected, centrifuged, counted, and diluted to 10^4/μl for later use. Cells were inoculated at 2×10^4 cells/animal.
as §1
The mice were anesthetized by intraperitoneal injection of 1% pentobarbital sodium (0.2 μl), fixed on a stereotactic device, and disinfected with 2% chlorhexidine iodine solution on the skin of skull part. The injection site of the syringe was 0.1 cm to the left or right of the midline of the skull, and 0.3 cm in front of the coronal suture in mice. The microsyringe was sequentially penetrated through the skin and skull of the mouse skull part, and was fixed about 1-2 mm into the skull. 2 μl of Ly8 cell suspension was slowly injected (about 2×10^4 cells), and the injection was performed within 15 minutes, followed by leaving the needle for 5 minutes to allow the cells to fully attach, and then slowly removing the needle. […] During sleep after anesthesia, the mice were kept at 30° C. for 2 h. After anesthesia wore off, the mice were placed at room temperature of 25° C., and the surface changes were observed 24 h after inoculation. The following symptoms were observed: topical protrusion on the injection side, body emaciation, lethargy, and decreased mobility.
The mice in the above test drug groups receiving the prepared drug were administered by intraperitoneal injection at 0.2 mL/10 g body weight. The drug preparation was formulated prior to daily administration, and given for 14 days.
as §2

[3] = system: pfeiffer cancer cells (diffuse large B-cell lymphoma cell line); assay: MTS assay of the in vitro inhibitory effect on DLBCL cells (pfeiffer); type: cell-based; conditions: for OD value Mean / OD value 1 / OD value 2 / OD value 3: MTS, 490 nm; for OD value 1: well 1; for OD value 2: well 2; for OD value 3: well 3
Method: 2.2 MTS Assay of the In Vitro Inhibitory Effect of the Treatment Group on DLBCL Cells (Pfeiffer)
The cells in logarithmic growth phase were digested with 0.25% trypsin, washed with the basic medium, and centrifuged (1000 r/min, twice in 5 minutes). The cells were suspended with complete medium, and the cell concentration was adjusted to […], which was inoculated into a 96-well plate at 50 μl/well (6×10^3 cells/well).
The next day, after the cells adhered to the wall, the drug was given to each group and then incubated for 48 h at a constant temperature of 37° C. under 5% CO2. The dosage for each well is 100 μl. For the blank group, no cell was inoculated, and an equal amount of medium (100 μl) was added; the negative control group received an equal amount of medium (100 μl) after cell inoculation, and 3 wells were set for one group.
20 μl of MTS was added to each well. The plate was further cultivated for 3 h for color development, and then shaken for 10 seconds before testing, to mix well.
The OD value was determined at a wavelength of 490 nm using an enzyme-linked immunosorbent assay (ELISA), and the OD value of the blank control was adjusted to 0.

[4] = i.p. 3 mg/kg once every two days, 14 days
[5] = Homo sapiens, 10 μg/ml, 48 h, pfeiffer cells, read-out: Inhibition rate (%)

CN(Cc1cnc2nc(N)nc(N)c2n1)c1ccc(C(=O)N[C@@H](CCC(=O)O)C(=O)O)cc1 [methotrexate]
Body weight (g) Before administration ([1]; before administration, group later given i.p. 3 mg/kg once every two days): 19.31 ± 0.66 g | Body weight (g) After administration [1, 4]: 18.23 ± 0.79 g | Survival number (mice) [1, 4]: 6 mice | Tumor inhibition rate (%) [1, 4]: 41.14% | deaths ([1]; positive control group, i.p. 3 mg/kg once every two days): 1 | Survival number (mouse) ([2]; 14 days): 6 mouse | Tumor inhibition rate (%) ([2]; 14 days): 41.06% | Tumor weight ([2]; 14 days): 0.79 ± 0.12 g | Weight (g) After treatment ([2]; 14 days): 17.26 ± 0.65 g | deaths ([2]; positive control group): 1 | OD value Mean ([3]; 10 μg/ml, 48 h): 1.193 | OD value 1 ([3]; 10 μg/ml, 48 h): 1.202 | OD value 2 ([3]; 10 μg/ml, 48 h): 1.193 | OD value 3 ([3]; 10 μg/ml, 48 h): 1.185 | inhibition at 10 µg/mL [3, 5]: 48.7%

O=C(/C=C/c1ccc(O)c(O)c1)O[C@@H]1C[C@](O)(C(=O)O)C[C@@H](O)[C@H]1O [CHA, Chlorogenic acid]
OD value Mean ([3]; 5 μg/ml, 48 h): 1.263 | OD value 1 ([3]; 5 μg/ml, 48 h): 1.335 | OD value 2 ([3]; 5 μg/ml, 48 h): 1.221 | OD value 3 ([3]; 5 μg/ml, 48 h): 1.233 | OD value Mean ([3]; 10 μg/ml, 48 h): 1.149 | OD value 1 ([3]; 10 μg/ml, 48 h): 1.156 | OD value 2 ([3]; 10 μg/ml, 48 h): 1.142 | OD value 3 ([3]; 10 μg/ml, 48 h): 1.15 | OD value Mean ([3]; 30 μg/ml, 48 h): 0.998 | OD value 1 ([3]; 30 μg/ml, 48 h): 1.006 | OD value 2 ([3]; 30 μg/ml, 48 h): 1.007 | OD value 3 ([3]; 30 μg/ml, 48 h): 0.98 | OD value Mean ([3]; 50 μg/ml, 48 h): 0.628 | OD value 1 ([3]; 50 μg/ml, 48 h): 0.630 | OD value 2 ([3]; 50 μg/ml, 48 h): 0.621 | OD value 3 ([3]; 50 μg/ml, 48 h): 0.634 | OD value Mean ([3]; 100 μg/ml, 48 h): 0.658 | OD value 1 ([3]; 100 μg/ml, 48 h): 0.661 | OD value 2 ([3]; 100 μg/ml, 48 h): 0.65 | OD value 3 ([3]; 100 μg/ml, 48 h): 0.664 | cell morphology / growth of pfeiffer cancer cell lines under inverted microscope ([3]; 50-100 μg/ml, 48 h): significant inhibitory effect | inhibition at 5 µg/mL ([3]; Homo sapiens, 5 μg/ml, 48 h, pfeiffer cells, read-out: Inhibition rate (%)): 45.7% | inhibition at 10 µg/mL [3, 5]: 50.6% | inhibition at 30 µg/mL ([3]; Homo sapiens, 30 μg/ml, 48 h, pfeiffer cells, read-out: Inhibition rate (%)): 57.1% | inhibition at 50 µg/mL ([3]; Homo sapiens, 50 μg/ml, 48 h, pfeiffer cells, read-out: Inhibition rate (%)): 73% | inhibition at 100 µg/mL ([3]; Homo sapiens, 100 μg/ml, 48 h, pfeiffer cells, read-out: Inhibition rate (%)): 71.7% | tumor inhibition rate ([3]; concentration 50-100 μg/ml, pfeiffer cells): 71.68-72.97% | inhibitory effect on pfeiffer cancer cells compared with methotrexate ([3]; same dose 10 μg/ml): higher inhibitory effect

— patent US20250009702A1 (SICHUAN JIUZHANG BIOLOGICAL SCIENCE AND TECHNOLOGY CO., LTD., priority 2021, published 2025)
